Data on three compounds can be found in ChEMBL document CHEMBL5370591, “A Potent and Narrow-Spectrum Antibacterial against Clostridioides difficile Infection” (J Med Chem, 2023).

Structures are written as SMILES. Converted amounts (≈) assume the structure as drawn. The source made the active and inactive calls. The calls are words filed in the database; no cut-off is given here.

As usually defined, the MIC is the lowest concentration found to suppress growth. What is called IC50 is the midpoint of a concentration-inhibition curve.

Data set [1] concerns Clostridioides difficile. The experiment in a line: Antibacterial activity against Clostridium difficile 24531 assessed as inhibition of bacterial growth by broth microdilution method. The format is functional. (In general: Broth dilution looks for growth in wells or tubes with falling amounts of substance.)
Another data set concerns Bacillus cereus. The experiment in a line: Antibacterial activity against Bacillus cereus ATCC 13061 assessed as inhibition of bacterial growth by broth microdilution method. The format is functional.
The subject of a further data set is Streptococcus pyogenes. Briefly: Antibacterial activity against Streptococcus pyogenes ATCC 49399 assessed as inhibition of bacterial growth by broth microdilution method. It is filed as functional.
The subject of a further data set is Acinetobacter baumannii. The experiment in a line: Antibacterial activity against Acinetobacter baumannii ATCC17961 assessed as inhibition of bacterial growth by broth microdilution method. It is filed as functional.
In data set [2] the test system is Enterococcus faecium. Briefly: Antibacterial activity against vancomycin susceptible Enterococcus faecium119-39A assessed as inhibition of bacterial growth by broth microdilution method. It is filed as functional. The conditions noted are these: 119-39A.
Data set [3] relates to Enterococcus faecalis. The experiment in a line: Antibacterial activity against vancomycin resistant Enterococcus faecalis 99 assessed as inhibition of bacterial growth by broth microdilution method. It is filed as functional.
In data set [4] the test system is Clostridioides difficile. Briefly: Antibacterial activity against Clostridium difficile 26675 assessed as inhibition of bacterial growth by broth microdilution method. The format is functional.
Data set [5] has as its system Enterococcus faecalis. Briefly: Antibacterial activity against vancomycin susceptible Enterococcus faecalis 201 assessed as inhibition of bacterial growth by broth microdilution method. It is filed as functional.
Data set [6] concerns Staphylococcus aureus. The experiment in a line: Antibacterial activity against vancomycin-resistant Staphylococcus aureus clinical isolate 1 assessed as inhibition of bacterial growth by broth microdilution method. The format is functional.
Data set [7] concerns Clostridioides difficile. Briefly: Antibacterial activity against Clostridium difficile BAA-1870 assessed as inhibition of bacterial growth by broth microdilution method. The format is functional.
In data set [8] the test system is Clostridioides difficile. Briefly: Antibacterial activity against Clostridium difficile 23828 assessed as inhibition of bacterial growth by broth microdilution method. The format is functional.
In data set [9] the test system is Clostridioides difficile. The experiment in a line: Antibacterial activity against Clostridium difficile ATCC 43255 assessed as damage in cell wall at 8 time MIC incubated for 24 hrs by scanning electron microscopy based analysis. The format is functional, organism-based.
The test system of another data set is Escherichia coli. The experiment in a line: Antibacterial activity against Escherichia coli ATCC25922 assessed as inhibition of bacterial growth by broth microdilution method. It is filed as functional.
For another data set, the system named is Bifidobacterium longum. The experiment in a line: Antibacterial activity against Bifidobacterium longum HM-846 assessed as inhibition of bacterial growth by broth microdilution method. The format is functional.
Another data set has as its system Pseudomonas aeruginosa. Briefly: Antibacterial activity against Pseudomonas aeruginosa ATCC27853 assessed as inhibition of bacterial growth by broth microdilution method. It is filed as functional.
Another data set has as its system Klebsiella pneumoniae. The experiment in a line: Antibacterial activity against Klebsiella pneumoniae ATCC700603 assessed as inhibition of bacterial growth by broth microdilution method. The format is functional.
Data set [10] has as its system Clostridioides difficile. The experiment in a line: Antibacterial activity against Clostridium difficile BAA-1803 assessed as inhibition of bacterial growth by broth microdilution method. The format is functional.
Data set [11] concerns Staphylococcus haemolyticus. The experiment in a line: Antibacterial activity against Staphylococcus haemolyticus ATCC 29970 assessed as inhibition of bacterial growth by broth microdilution method. It is filed as functional.
In a further data set the test system is Klebsiella aerogenes. The experiment in a line: Antibacterial activity against Klebsiella aerogenes ATCC35029 assessed as inhibition of bacterial growth by broth microdilution method. The format is functional.
Data set [12] has as its system Enterococcus faecium. The experiment in a line: Antibacterial activity against vancomycin resistant Enterococcus faecium 106 assessed as inhibition of bacterial growth by broth microdilution method. It is filed as functional.
The test system of another data set is Bacillus licheniformis. Briefly: Antibacterial activity against Bacillus licheniformis ATCC 12759 assessed as inhibition of bacterial growth by broth microdilution method. The format is functional.
Data set [13] concerns Enterococcus faecalis. The experiment in a line: Antibacterial activity against Enterococcus faecalis ATCC 29212 assessed as inhibition of bacterial growth by broth microdilution method. The format is functional.
Data set [14] deals with Enterococcus faecium. The experiment in a line: Antibacterial activity against Enterococcus faecium NCTC 7171 assessed as inhibition of bacterial growth by broth microdilution method. The format is functional.
In data set [15] the test system is Staphylococcus epidermidis. The experiment in a line: Antibacterial activity against Staphylococcus epidermidis ATCC 35547 assessed as inhibition of bacterial growth by broth microdilution method. It is filed as functional.
For a further data set, the system named is Corynebacterium sp. Briefly: Antibacterial activity against Corynebacterium sp. HM-784 assessed as inhibition of bacterial growth by broth microdilution method. The format is functional.
Data set [16] concerns Staphylococcus aureus. The experiment in a line: Antibacterial activity against vancomycin-resistant Staphylococcus aureus clinical isolate 2 assessed as inhibition of bacterial growth by broth microdilution method. The format is functional.
Data set [17] relates to Clostridioides difficile. Briefly: Antibacterial activity against Clostridium difficile NR49318 assessed as inhibition of bacterial growth by broth microdilution method. The format is functional.
The subject of data set [18] is Clostridioides difficile. Briefly: Antibacterial activity against Clostridium difficile NR49310 assessed as inhibition of bacterial growth by broth microdilution method. The format is functional.
In the next data set the test system is Streptococcus oralis. Briefly: Antibacterial activity against Streptococcus oralis ATCC 9811 assessed as inhibition of bacterial growth by broth microdilution method. The format is functional.
Data set [19] relates to Clostridioides difficile. Briefly: Antibacterial activity against Clostridium difficile ATCC 43255 assessed as inhibition of bacterial growth by broth microdilution method. It is filed as functional.
The test system of the next data set is Veillonella. Briefly: Antibacterial activity against Veillonella HM-49 assessed as inhibition of bacterial growth by broth microdilution method. The format is functional.
The next data set relates to Bacteroides fragilis. Briefly: Antibacterial activity against Bacteroides fragilis HM-709 assessed as inhibition of bacterial growth by broth microdilution method. It is filed as functional.
Data set [20] concerns Clostridioides difficile. The experiment in a line: Antibacterial activity against Clostridium difficile NR49302 assessed as inhibition of bacterial growth by broth microdilution method. It is filed as functional.
A further data set relates to Lactobacillus gasseri. The experiment in a line: Antibacterial activity against Lactobacillus gasseri HM-644 assessed as inhibition of bacterial growth by broth microdilution method. It is filed as functional.
In data set [21] the test system is Clostridioides difficile. Briefly: Antibacterial activity against Clostridium difficile NR49305 assessed as inhibition of bacterial growth by broth microdilution method. The format is functional.
Data set [22] has as its system Limosilactobacillus reuteri. Briefly: Antibacterial activity against Lactobacillus reuteri HM-102 assessed as inhibition of bacterial growth by broth microdilution method. It is filed as functional.
The test system of a further data set is Fusobacterium nucleatum. The experiment in a line: Antibacterial activity against Fusobacterium nucleatum HM-992 assessed as inhibition of bacterial growth by broth microdilution method. The format is functional.
For data set [23], the system named is Clostridioides difficile. The experiment in a line: Antibacterial activity against Clostridium difficile NR49294 assessed as inhibition of bacterial growth by broth microdilution method. The format is functional.
Data set [24] deals with Clostridioides difficile. Briefly: Antibacterial activity against Clostridium difficile NR49292 assessed as inhibition of bacterial growth by broth microdilution method. The format is functional.
A further data set relates to Eubacterium sp. The experiment in a line: Antibacterial activity against Eubacterium sp. HM-178 assessed as inhibition of bacterial growth by broth microdilution method. It is filed as functional.
In a further data set the test system is THP-1. Briefly: Cytotoxicity against human THP-1 cells assessed as increase in LDH release incubate for 24 hrs by trypan-blue staining based analysis. The conditions noted are these: THP-1, 24 h. It is filed as functional, cell-based.
Data set [25] is described as follows: Selectivity ratio of IC50 for human THP-1 cells to MIC for Clostridium difficile ATCC 43255. The format is toxicity.
The subject of data set [26] is Clostridioides difficile. The experiment in a line: Antibacterial activity against Clostridium difficile ATCC 43255 measured after 48 hrs by two fold serial dilution method. The format is functional.
Data set [27] is described as follows: Selectivity ratio of IC50 for human HepG2 cells to MIC for Clostridium difficile ATCC 43255. The format is toxicity.
The test system of the next data set is HepG2. Briefly: Antiproliferative activity against human HepG2 cells assessed as inhibition of cell growth by XTT assay. It is filed as functional, cell-based. (In general: Tetrazolium assays rely on reduction of a dye to a coloured formazan, in cell work by metabolically active cells.)

For `Cc1ncc([N+](=O)[O-])n1CCO` [METRONIDAZOLE], the MIC in the data set with Clostridioides difficile [1] was 0.5 µg/mL (≈ 2.92 µM); with Bacillus cereus, > 256 µg/mL; in the data set on Streptococcus pyogenes, > 128 µg/mL; in the data set on Acinetobacter baumannii, > 128 µg/mL; with Enterococcus faecium [2], > 16 µg/mL; with Enterococcus faecalis [3], > 256 µg/mL. Moreover, the MIC with Clostridioides difficile [4] is 4 µg/mL (≈ 23.4 µM); in the data set with Enterococcus faecalis [5], > 256 µg/mL; in the data set with Staphylococcus aureus [6], > 256 µg/mL; in the data set with Clostridioides difficile [7], 0.5 µg/mL (≈ 2.92 µM); with Clostridioides difficile [8], 0.5 µg/mL (≈ 2.92 µM); in the data set with Escherichia coli, > 128 µg/mL. In addition, the MIC is 0.05 µg/mL (≈ 0.292 µM) with Bifidobacterium longum; > 128 µg/mL in the data set with Pseudomonas aeruginosa; > 128 µg/mL with Klebsiella pneumoniae; 0.5 µg/mL (≈ 2.92 µM) in the data set with Clostridioides difficile [10]; > 256 µg/mL in data set [11]; > 128 µg/mL in the data set with Klebsiella aerogenes. Moreover, the MIC was > 16 µg/mL in the data set on Enterococcus faecium [12]; > 256 µg/mL with Bacillus licheniformis; > 256 µg/mL in the data set on Enterococcus faecalis [13]; > 128 µg/mL in the data set with Enterococcus faecium [14]; > 128 µg/mL in data set [15]; > 32 µg/mL in the data set with Corynebacterium sp.. The minimal inhibitory concentration (MIC) with Staphylococcus aureus [16] is > 256 µg/mL. Moreover, the result with Clostridioides difficile [9] was inactive.

As for `CCc1c(Cl)c(O)c(Cl)c(O)c1C(=O)O[C@H]1[C@H](O)[C@H](OC)[C@H](OC/C2=C\C=C\C[C@H](O)/C(C)=C/[C@H](CC)[C@@H](O[C@@H]3OC(C)(C)[C@@H](OC(=O)C(C)C)[C@H](O)[C@@H]3O)/C(C)=C/C(C)=C/C[C@@H]([C@@H](C)O)OC2=O)O[C@@H]1C` [FIDAXOMICIN], the MIC in the data set on Clostridioides difficile [1] was 0.01 µg/mL (≈ 0.00945 µM); in the data set on Clostridioides difficile [17], 0.125 µg/mL (≈ 0.118 µM); in the data set on Clostridioides difficile [18], ≤ 0.01 µg/mL; with Acinetobacter baumannii, > 128 µg/mL; in the data set with Enterococcus faecium [2] it was > 16 µg/mL; in the data set on Clostridioides difficile [4] it was 4 µg/mL (≈ 3.78 µM). Further, the MIC in the data set on Staphylococcus aureus [6] is 64 µg/mL (≈ 60.5 µM); with Streptococcus oralis, 32 µg/mL (≈ 30.2 µM); in the data set with Clostridioides difficile [7], 0.25 µg/mL (≈ 0.236 µM); in the data set on Clostridioides difficile [8] it was > 8 µg/mL; in the data set with Clostridioides difficile [19], 0.06 µg/mL (≈ 0.0567 µM); in the data set on Escherichia coli it was > 128 µg/mL. Further, the MIC in the data set on Bifidobacterium longum is < 0.01 µg/mL; in the data set on Pseudomonas aeruginosa, > 128 µg/mL; in the data set on Veillonella it was 8 µg/mL (≈ 7.56 µM); in the data set on Bacteroides fragilis, > 32 µg/mL; in the data set on Klebsiella pneumoniae, > 128 µg/mL; in the data set with Clostridioides difficile [10], 1 µg/mL (≈ 0.945 µM). In addition, the MIC in data set [11] was 16 µg/mL (≈ 15.1 µM); in the data set with Klebsiella aerogenes it was > 128 µg/mL; in the data set with Enterococcus faecium [12], > 16 µg/mL; in the data set on Clostridioides difficile [20], 0.03 µg/mL (≈ 0.0284 µM); in the data set with Lactobacillus gasseri it was 2 µg/mL (≈ 1.89 µM); with Clostridioides difficile [21], 0.01 µg/mL (≈ 0.00945 µM). Also, the minimum inhibitory concentration (MIC) in data set [22] was > 32 µg/mL; in the data set on Fusobacterium nucleatum it was < 0.06 µg/mL; in the data set on Clostridioides difficile [23] it was 0.01 µg/mL (≈ 0.00945 µM); with Corynebacterium sp., < 0.06 µg/mL; in the data set on Clostridioides difficile [24] it was 0.5 µg/mL (≈ 0.473 µM); in the data set with Eubacterium sp., 16 µg/mL (≈ 15.1 µM).

Regarding `O=[N+]([O-])c1c[nH]c(-c2nc(-c3ccc(OC4CCC4)cc3)no2)n1`, the figures for the IC50 with THP-1 and in the data set on HepG2 were > 128 µg/mL and 41.9 µg/mL (≈ 128 µM), respectively. Moreover, the selectivity ratio in data set [25] was > 512; in [27], 168. Further, the MIC with Clostridioides difficile [26] was found to be 0.25 µg/mL (≈ 0.764 µM).
